What was measured:
[1] = test system: human liver cells (HepG2-AD13); test: Direct contact cytotoxicity, Luciferase Assay System, HepG2-AD13 cells; assay type: cell-based; details: 6 h
Protocol: Immortalized human liver cells (hereafter HepG2-AD13) were obtained from collaborators at Aichi Gakuin University, Japan. The cells were maintained (37° C., 5% CO2) in Dulbecco's Modified Eagle's medium supplemented with 10% fetal bovine serum. For experiments, cells were obtained from a subconfluent stock culture.
Direct contact cytotoxicity testing was conducted by exposing cells to two-fold serial dilutions of AMmis2 (Table 8) to approximate the maximum possible exposure, assuming 7% mass fraction in the composite with a maximum of 2% leaching. To account for multiplicity and variable size of restorations, a four-fold greater dilution was also included in the testing. After 6 h, cells were assessed for cell viability using a Luciferase Assay System (Promega Corp., Madison, Wis.). Negative controls were without the AMmis2 and/or cells. Mean+standard error was obtained from five independent replicates tested in quadruplicate.

[2] = Degree of vinyl conversion (DVC) by near infra-red spectra of copolymer beams; assay type: physicochemical
Protocol: (§1) Experimental resin (UPE) was formulated from the commercially available monomers urethane dimethacrylate (UDMA, 50.91% w/w), polyethylene glycol extended urethane dimethacrylate (PEG-U, 18.18% w/w), and ethyl 2-(hydroxymethyl)acrylate (EHMA, 30.91% w/w). A conventional visible light initiator system comprised of camphorquinone (0.2% w/w) and ethyl-4-N,N-dimethylamino benzoate (4EDMAB, 0.8% w/w) was utilized. […] Copolymer specimens (beams) were prepared by depositing UPE (UPE resin control) and AM-UPE resins into glass molds (2 mm×2 mm×25 mm) and photopolymerizing them with a dental curing light (Triad 2000, Dentsply, Charlotte, N.C., USA) for 2 minutes from two sides. Copolymer specimens (pellets) were prepared by depositing UPE and AM-UPE resins into a stainless-steel mold (1 mm×16 mm), sandwiched between two sheets of Mylar film and two glass slides and photopolymerized in the same manner as the beam samples. Degree of vinyl conversion (DVC) of UPE and AM-UPE resins was determined utilizing beam samples by collecting the near infra-red (NIR) spectra (Nexus 670, ThermoFisher, Madison, Wis., USA) before and 24 h after polymerization and calculating the reduction in absorption band at 6165 cm^−1 corresponding to the vinyl (C═C—H) overtone signal. By maintaining a constant specimen thickness, a need for an invariant internal standard was eliminated. The DVC was calculated as: […]
(§2) where Area(polymer) and Area(monomer) correspond to the areas under 6165 cm^−1 peaks after and before the polymerization, respectively. After DVC analysis, flexural strength (FS) and elastic modulus (E) of beam specimen were determined employing the Universal Testing Machine (Instron 5500R, Instron Corp., Canton, Mass., USA). The load was applied (at cross-head speed of 1 mm/min) to the center of a specimen positioned on a test device with supports 20 mm apart. The FS and E of the specimens (three replicates/experimental group) was calculated as instructed in the ISO4049:2009 document. Changes in hydrophilicity/hydrophobicity of UPE resins due to the introduction of AM monomers were assessed on pellet specimen by sessile drop contact angle (CA) measurements (drop shape analyzer DSA100, Krüss GmbH, Hamburg, Germany). Following the deposition of 4 μL water droplets on the resin pellets, the pellets were imaged after 1 min resting time with a camera at the points of intersection (three-phase contact points) between the drop contour and the projection of the surface (baseline). The CA water values were calculated employing the Krüss Advance software. At least four repetitive measurements were performed in each group. Analysis of variance (ANOVA) and Newman-Keuls multiple paired comparisons (at 95% confidence level) were used to analyze the experimental data as a function of resin composition and establish a statistical significance of differences between the experimental groups (WINKS 7.0.9, TexaSoft, Cedar Hills, Tex., USA).

[3] = Sessile drop water contact angle (CA) on resin pellets; assay type: physicochemical
Protocol: as §1, §2

[4] = test system: mouse subcutaneous connective tissue fibroblasts (NCTC clone 929, CCL1); test: Direct contact cytotoxicity, LIVE/DEAD viability, CCL1 cells; assay type: cell-based
[5] = test system: human gingival fibroblasts (HGF); test: Direct contact cytotoxicity, LIVE/DEAD viability, HGF cells; assay type: cell-based
Protocol: (§3) Immortalized human gingival fibroblasts (HGF) were purchased from Applied Biological Materials, Inc. (Richmond, British Columbia, Canada). […] For experiments, cells were obtained from a subconfluent stock culture.
(§4) Direct contact cytotoxicity testing was conducted as previously described^7, 8. Briefly, cells were exposed to two-fold serial dilutions of AMadh series monomers or AMsil series monomers to approximate the maximum possible exposure, (Table 9). Table 9 illustrates biocompatibility testing using maximum possible monomer exposure (mmol/L), assuming 7% mass fraction in the restorative with a maximum of 2% leaching. To account for multiplicity and variable size of restorations, a two- and four-fold greater dilution was also included in the testing. After 24 and 72 h, cells were assessed for cell viability using the LIVE/DEAD® Viability/Cytotoxicity kit (Life Technologies, Corp., Grand Island, N.Y.). Cellular metabolic activity was subsequently assessed using the CellTiter® AQueous One Solution Reagent (Promega, Corp., Madison, Wis.). Negative controls were without the novel monomer and/or cells. Mean+standard error was obtained from five independent replicates tested in triplicate.

CCL1 cells = test: Cellular metabolic activity (CellTiter AQueous One Solution Reagent), CCL1 cells; assay type: cell-based; details: two-fold serial dilutions, 24 h and 72 h
[6] = test system: human gingival fibroblasts (HGF); test: Cellular metabolic activity (CellTiter AQueous One Solution Reagent), HGF cells; assay type: cell-based; details: two-fold serial dilutions, 24 h and 72 h
Protocol: as §3, §4

[7] = two-fold serial dilutions, 24 h and 72 h

Compound	effect on HepG2-AD13 cells compared to negative control ([1]; concentrations ≤1.812 mmol/L)	relative luminescence units, fold greater than at all lower concentrations ([1]; concentrations ≥3.623 mmol/L)	DVC compared to UPE resin control ([2]; 10 mass percent in UPE resin)	reduction of DVC relative to UPE resin control ([2]; 20 mass percent in UPE resin) [%]	CA ([3]; 10 mass % monomer in UPE resin) [°]	reduction of CA relative to UPE resin control ([3]; 10 mass % monomer in UPE resin) [%]	effect on hydrophobic-hydrophilic properties of the copolymer ([3]; 10 mass percent in UPE resin)	effect on hydrophobic-hydrophilic properties of the copolymer ([3]; 20 mass percent in UPE resin)	effect of monomer concentration on CCL1 cell viability [4, 7]	percentage of live CCL1 cells, fold lower compared to concentrations ≤0.91 mmol/L ([4]; ≥1.82 mmol/L, 72 h exposure) [fold]	live CCL1 cells compared to lower concentrations ([4]; ≥3.64 mmol/L, 24 h exposure)	effect of exposure time on HGF live cells, difference of means ([5]; 24 h vs 72 h, regardless of concentration) [%]	effect of monomer concentration on HGF cell viability [5, 7]	reduction of number of live HGFs compared to the control group ([5]; ≥1.82 mmol/L)	effect of monomer concentration on CCL1 metabolic activity (CCL1 cells)	effect on metabolic activity of HGF cells [6]
2-(methacryloyloxy)-N,N,N-trimethylethan-1-aminium methacrylate [AMmis2]	did not exert a significant effect	at least 1.5 fold														
C=C(C)C(=O)OCC[N+](C)(C)CCCCCCCCCCC[Si](OC)(OC)OC.[Br-] [AMsil2, N-(2-(methacryloyloxy)ethyl)-N,N-dimethyl-11-(trimethoxysilyl)undecan-1-aminium bromide]			did not change the copolymer DVC	12.9	37.4±9.2	38	a shift towards the lower CA values	maintained the hydrophobic-hydrophilic balance	exerted a main effect	3 to 4	lower	~23	exhibited a concentration effect	more than 3 fold	exerted an effect	exhibited an effect

Source: patent publication US20200148803A1, “POLYMERIZABLE MULTIFUNCTIONAL ANTIMICROBIAL QUATERNARY AMMONIUM MONOMERS, METHODS OF SYNTHESIS, AND USES THEREOF” (ADA Foundation, priority 2018, published 2020)
